Data set [1] concerns the target T1, human DGAT1 (Homo sapiens, UniProt O75907).
T1 construct: FLAG (N); made in house; host or cells: SF9 insect cells (pFastBac baculovirus); total cell membranes used
T1 sequence (O75907 1-488): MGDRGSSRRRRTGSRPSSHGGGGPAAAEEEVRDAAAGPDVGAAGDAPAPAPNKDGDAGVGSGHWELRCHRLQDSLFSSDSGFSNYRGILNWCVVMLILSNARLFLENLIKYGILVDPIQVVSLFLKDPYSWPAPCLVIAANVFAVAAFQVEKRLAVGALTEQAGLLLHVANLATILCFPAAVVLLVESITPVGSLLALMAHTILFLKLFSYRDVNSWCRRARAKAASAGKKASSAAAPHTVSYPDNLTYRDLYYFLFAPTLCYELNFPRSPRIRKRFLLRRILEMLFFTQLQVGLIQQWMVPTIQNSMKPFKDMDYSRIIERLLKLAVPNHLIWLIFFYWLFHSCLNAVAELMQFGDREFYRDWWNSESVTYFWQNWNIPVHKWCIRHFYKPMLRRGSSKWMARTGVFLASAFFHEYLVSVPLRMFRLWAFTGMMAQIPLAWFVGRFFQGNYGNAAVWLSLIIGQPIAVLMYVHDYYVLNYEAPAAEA
The data set can be described thus: DGAT1 FlashPlate assay: inhibition of DGAT1 activity in membrane preparations. It is filed as biochemical. The settings on record: IC50 values expressed in M. An excerpt: The inhibiting activity of the present compounds on DGAT1 activity was screened in a single well procedure assay using DGAT1 comprising membrane preparations and DGAT1 substrate comprising micelles and determining formed radio-active triacylglycerol coming in close proximity of a flashplate surface by radio luminescence.
Said assay is described in full detail in WO2006/067071, the content of which is incorporated herein by reference.
By DGAT1 activity is meant the transfer of coenzyme A activated fatty acids to the 3-position of 1,2-diacylglycerols, thus forming a triglyceride molecule, by enzyme DGAT1.
human DGAT1 (NM012079.2) was cloned into the pFastBac vector, containing translation start, a FLAG-tag at the N-terminus as described in literature and a viral Kozak sequence (AAX) preceding the ATG to improve expression in insect cells. Expression was done as described in literature (Cases, S., Smith, S. J., Zheng, Y., Myers H. M., Lear, S. R., Sande, E., Novak, S., Collins, C., Welch, C. B., Lusis, A. J., Erickson, S. K. and Farese, R. V. (1998) Proc. Natl. Acad. Sci. USA 95, 13018-13023.) using SF9 cells.
72 h transfected SF9 cells were collected by centrifugation (13000 rpm-15 min-4° C.) and lysed in 2×500 ml lysisbuffer (0.1M Sucrose, 50 mM KCl, 40 mM KH2PO4, 30 mM EDTA pH 7.2. Cells were homogenized by cell disruptor. After centrifugation 1380 rpm-15 min-4° C. (SN discarded), pellet was resuspended in 500 ml lysisbuffer and total cell membranes collected by ultracentrifugation at 34000 rpm (100 000 g) for 60 min (4° C.). The collected membranes were resuspended in lysis buffer, divided in aliquots and stored with 10% glycerol at −80° C. until use.
Add 1 ml dioleoyl-sn-glycerol (10 mg/ml) to 10 ml of L-α-phosphatidylcholine (1 mg/ml) and 10 ml of L-α-phosphatidyl-L-serine (1 mg/ml) in a thick glass recipient. Evaporate under nitrogen and put on ice for 15 minutes. Reconstitute in 10 ml Tris/HCl (10 mM, pH 7.4) by sonication on ice. The sonification process consists of sonification cycles of 10 seconds in the sonification bath followed by 10 seconds cool down on ice and repeating this sonification cycle till a homogeneous solution is obtained (takes about 15 minutes). The thus obtained micelles are stored at −20° C. till later use and contain DAG at a final concentration of 1.61 mM.
• a) Assaybuffer • 50 mM Tris-HCl (pH 7.4), 150 mM MgCl2, 1 mM EDTA, 0.2% BSA. • b) N-ethylmaleimide, 5M • Dissolve 5 g into a final volume of 8 ml DMSO 100% and store at −20° C. in aliquots till later use. • c) Substrate mix (for 1 384 well plate=3840 μl) • 612 μl micelles stock (51 μM final) • 16.6 μl oleoylCoA 9.7 mM • 23 μl [^3H]-oleoylCoA (49 Ci/mmol, 500 μCi/ml) 3188.4 μl Tris pH 7.4, 10 mM • d) Enzyme mix (for 1 384 well plate=3520 μl) (5 μg/ml) • Add 11.73 μl of DGAT membrane stock (1500 μg/ml stock) to 3508 μl assay buffer. • e) Stop mix (for 1 384 well plate=7.68 ml) (250 mM) • Add 384 μl of N-ethylmaleimide (5M) to 3.456 ml DMSO 100%, and further dilute 3.84 ml of said solution with 3.84 ml DMSO 10%. Method
DGAT activity in membrane preparations was assayed in 50 mM Tris-HCl (pH 7.4), 150 mM MgCl2, 1 mM EDTA and 0.2% BSA, containing 50 μM DAG, […] PC/PS and 8.4 μM [^3H]-oleoylCoA (at a specific activity of 30 nCi/well) in a final volume of 50 μl in 384-well format using the red shifted Basic Image FlashPlate™ (Perkin Elmer Cat. No. SMP400).
In detail, 10 μl enzyme mix and 10 μl substrate mix were added to 30 μl of assay buffer, optionally in the presence of 1 μl DMSO (blank and controls) or 1 μl of the compound to be tested. This reaction mixture was incubated for 120 minutes at 37° C. and the enzymatic reaction stopped by adding 20 μl of the stop mix. The plates were sealed and the vesicles allowed to settle overnight at room temperature. Plates were centrifuged for 5 minutes at 1500 rpm and measured in Leadseeker. […]

These results are taken from patent US8633197B2, “Piperidine/piperazine derivatives” (Janssen Pharmaceutica N.V., priority 2007, dated 2014).

Molecules are shown by their SMILES.

Usually melting point stands for the temperature of the solid-liquid transition. As usually defined, the IC50 is the concentration needed to halve the response being measured. High values mean weaker potency in that assay, low ones greater potency in that assay.

The compound `CC(=O)OCC(=O)Nc1ccc(N2CCN(/C(=N\C#N)Nc3c(F)cccc3Cl)CC2)cc1` [Compound 16] gave a melting point of 209 °C. Further, the “pIC50 (mean)” value in data set [1] is listed as 6.79.
`Cc1cccc(Cl)c1N/C(=N/C#N)N1CCN(c2ccc(NC(=O)c3ccc(N4CCN(C)CC4)cc3)cc2)CC1` [Compound 17] registered a melting point of 285.1 °C. Also, the “pIC50 (mean)” value in data set [1] worked out at 6.64.
`Cc1cc(C)n(-c2cccc(C(=O)Nc3ccc(N4CCN(/C(=N\C#N)Nc5c(Cl)cc(CN6CCCC6)cc5Cl)CC4)cc3)c2)n1` [Compound 12]: the “pIC50 (mean)” value in data set [1] is given as 7.84.
`N#C/N=C(/Nc1ccc(C(=O)O)cc1Cl)N1CCN(c2ccc(NC(=O)CCCc3ccccc3)cc2)CC1` [Compound 13] gave a melting point of 208.7 °C. In data set [1], the “pIC50 (mean)” value is 7.58.
The compound `Cc1ccccc1-c1cccc(C(=O)Nc2ccc(N3CCN(/C(=N\C#N)Nc4c(Cl)cc(CN5CCCC5)cc4Cl)CC3)cc2)c1` [Compound 6] gave a melting point of 217.1 °C. Also, the midpoint of inhibition in data set [1], the IC50, lay at 2.4 nM.
The compound `COC(=O)c1ccc(N/C(=N/C#N)N2CCN(c3ccc(NC(=O)c4cccc(N5CCCC5)c4)cc3)CC2)c(Cl)c1` [Compound 9] yielded a melting point of 220.3 °C. In addition, it took 6.31 nM to reach half-maximal inhibition in data set [1] (IC50).
Regarding `COc1ccc(CC(=O)Nc2ccc(N3CCN(/C(=N\C#N)Nc4c(C)cccc4Cl)CC3)cc2)cc1` [Compound 8], the melting point worked out at 206.9 °C. Also, the “pIC50 (mean)” value in data set [1] was determined as 8.23.
On the same counts, the results for `COCCN1CCN(C(=O)c2cc(Cl)c(N/C(=N/C#N)N3CCN(c4ccc(NC(=O)CNc5ccccc5)cc4)CC3)c(Cl)c2)CC1` [Compound 15] are 211.9 °C and 7.20.
In the case of `CN1CCN(c2ccc(C(=O)Nc3ccc(N4CCN(/C(=N\C#N)Nc5ccccc5Cl)CC4)cc3)cc2)CC1` [Compound 18], the melting point is 244.2 °C. The “pIC50 (mean)” value in data set [1] is listed as 6.10.
For the compound `CCCCCCC(=O)Nc1ccc(N2CCN(/C(=N\C#N)Nc3ccc(C(=O)OC)cc3Cl)CC2)cc1` [Compound 14], the melting point was 191.8 °C. The “pIC50 (mean)” value in data set [1] was determined as 7.24.
In data set [1], `N#C/N=C(/Nc1ccccc1)N1CCN(c2ccc(NC(=O)CCCc3ccccc3)cc2)CC1` [Compound 5] had a 50% inhibitory concentration (IC50) of 1350 nM.
The same measure, in the same setting: next, `N#C/N=C(/Nc1ccccc1Cl)N1CCN(c2ccc(NC(=O)CCCc3ccccc3)cc2)CC1` [Compound 3]: 33.9 nM; `CN1CCN(C(=O)c2cc(Cl)c(N/C(=N/C#N)N3CCN(c4ccc(NC(=O)c5cccc(N6CCCC6)c5)cc4)CC3)c(Cl)c2)CC1` [Compound 7]: 5.25 nM.
In turn, `COc1ccc(CC(=O)Nc2ccc(N3CCN(/C(=N\C#N)Nc4c(Cl)cc(CN5CCCC5)cc4Cl)CC3)cc2)cc1` [Compound 11] registered a melting point of 222.4 °C. Also, in data set [1], the “pIC50 (mean)” value came out at 8.16.
Consider `COCCN1CCN(C(=O)c2cc(Cl)c(N/C(=N/C#N)N3CCN(c4ccc(NC(=O)c5ccccc5N5CCN(C)CC5)cc4)CC3)c(Cl)c2)CC1` [Compound 19], for which the melting point was found to be 254.2 °C. Besides, in data set [1], the “pIC50 (mean)” value is on record as 5.54.
For `N#C/N=C(/Nc1c(Cl)cccc1Cl)N1CCN(c2ccc(NC(=O)CCCc3ccccc3)cc2)CC1` [Compound 1], the IC50 in data set [1] is 9.12 nM.
Compound `COCCN1CCN(C(=O)c2cc(Cl)c(N/C(=N/C#N)N3CCN(c4ccc(NC(=O)Cc5ccc(OC)cc5)cc4)CC3)c(Cl)c2)CC1` [Compound 10] displayed a melting point of 205.3 °C. The “pIC50 (mean)” value in data set [1] is recorded as 8.17.
In data set [1], `Cc1ccccc1N/C(=N/C#N)N1CCN(c2ccc(NC(=O)CCCc3ccccc3)cc2)CC1` [Compound 4] had an IC50 of 36.3 nM.
Consider `N#C/N=C(\Oc1ccccc1)N1CCN(c2ccc(NC(=O)CCCc3ccccc3)cc2)CC1` [Compound 2], for which, in data set [1], the IC50 is 1820 nM.
